In patent publication EP0565593B1, “REDUCING PESTICIDAL INTERACTIONS IN CROPS” (priority 1990, dated 1992):
Where two headings read alike, the source gives them in different places.

Tests used:
Giant foxtail (GIFT) = assay: Greenhouse test Procedure VI (Examples 59-61; Tables 58-60); format: in vivo; conditions: Antidote + Biocide No. 1 in furrow
From the text: This procedure describes interaction among herbicide, biocide and antidote when the herbicide is incorporated in a soil cover layer and the biocide and the antidote are applied in a soil furrow containing crop seed before emergence of the crop. The soil and seeding depth were described in Procedure IV. A first container was designated as an untreated control, a second container was designated as a herbicide control, a third container was designated as a herbicide + biocide control and a fourth container as a herbicide + biocide + antidote test container. The biocide and antidote were formulated as granules. The biocide was applied to the soil furrows of the third and fourth containers at an application rate of 1.1 mg of active compound per cm of row. The antidote was applied to the soil furrow of the fourth container at an application rate of 0.37 mg of active compound per cm of row. A measured amount of the herbicide dispersed or dissolved in acetone was applied to a measured quantity of soil. The quantity of soil treated with the herbicide was thoroughly mixed to incorporate the herbicide. Samples of this soil were used to cover the seed beds of the second, third and fourth containers. For each test series, the seed bed of the first container was likewise covered by a soil layer not treated with herbicide and without biocide or antidote in the soil furrow.
The containers were then placed on a bench in a greenhouse. Watering was by subirrigation plus overhead irrigation after the plants emerged. All treatments were run in duplicate. Plant response was observed according to Procedure IV. Variations in this procedure will be noted in the examples.
The procedure used in this example involved the PPI application of biocide and safener as described in general Procedure VI above. The "primary" herbicide in this test was MON-12000 (Herbi-cide No. 1) in admixture with other herbicides designated as "co-herbicides", which included LASSO® (co-herbicide B); DUAL® (C); acetochlor (A); EPTAM® (D); butylate (E) and PURSUIT® (K).
The in-furrow treatments with blended COUNTER 15G and antidote mixtures was as described in above examples. MON-12000 and the co-herbicides were formulated in acetone and applied as tank mixtures, incorporated into Dupo silt loam soil with a rotary drum mixer. Subsamples were used to cover seeded and in-furrow treated 10.2 cm pots. Pots were placed on greenhouse benches and subirrigated. Plant responses were observed thirteen days after PPI initiation. Test results (average of two replications) are shown in Table 58, wherein giant foxtail (GIFT) was used in place of shattercane.
This test was conducted in the same manner used in Example 59. All biocide and antidote components were the same and in these tests XRD-498 (Herbicide No. 21) was the prime herbicide. Co-herbicides are shown in Table 59 together with test data.
In one other test conducted as described in the preceding examples in this series of tests, the herbicide PURSUIT® was used as the primary herbicide (in the context of this invention) together with the same insecticide and safeners as above and the co-herbicides shown in Table 60, together with test results.

cotton (COTT) = assay: Multi-crop greenhouse test, biocide, herbicide and safener applied to soil covers (Examples 65, 66; Tables 64, 65); format: in vivo
Description: Tests according to this invention in various crops indicate widespread application of the invention. In Examples 62-66 below are described tests with a variety of herbicides contacted with COUNTER® 15G in the presence and absence of MON-7400 (Antidote No. 12); MON-13900 (No. 1); MON-4660 (No. 16) and flurazole (No. 16). Those tests were conducted according to Procedures IV or V described above and illustrated further in other foregoing examples. Plants used in all tests were, for crops (as abbreviated in parentheses); cotton (COTT); soybean (SOBE); CORN, grain sorghum (GRSO); wheat (WHEA) and RICE, and the weeds giant foxtail (GIFT) and velvetleaf (VELE). The data in the tables below represent averages of two replications.
In this test the crops and weeds were planted 1.3 cm deep in 13.7 cm X 27.7 cm pans containing Dupo silt loam soil. The test safeners were applied in acetone solution and COUNTER 15G as dry granules to soil cover layers and incorporated by shaking in a bag. Treated cover layers were placed on seeded pans which were transferred to greenhouse benches and subirrigated. Herbicide was applied POE six (6) days after PPI initiation and observations of plant injury made ten (10) days later; results are shown in Table 61. The herbicide used in this example was BEACON (No. 8).
In another test in the several crops and weeds used in this test series, the herbicidal component was MON-12000 (No. 1); the other components were the same. the procedure used in this test was the same as that described in Example 62, modified to use a light overhead irrigation (about 0.32 cm/day) during days 4-7 of the test.
In yet another test in this series, XRD-498 (Herbicide No. 21) was used as the herbicidal component in contact with COUNTER 15G in the presence of the above safeners. The various components of the system (biocide, herbicide and safener) were applied concurrently to soil covers of the seeded plants.

Shattercane (SHCA) = format: in vivo
Velvetleaf (VELE) = assay: whole plant or invertebrate; format: in vivo, Abutilon theophrasti; conditions: PPI

For `CC1(C)OC(c2ccco2)CN1C(=O)C(Cl)Cl` (stereo not drawn) [compound 1], the “% Inhibition GIFT” value (Giant foxtail (GIFT); Herbicide No. 6 0.14 Kg/Ha PPI) was 65%, the “% Inhibition GIFT” value (Giant foxtail (GIFT); Herbicide No. 11 0.0044 Kg/Ha PPI) was 0% and the “% Inhibition GIFT” value (Giant foxtail (GIFT); Herbicide No. 12 0.0044 Kg/Ha PPI) was 0%. The “% Inhibition GIFT” value (Giant foxtail (GIFT); Herbicide No. 13 0.0011 Kg/Ha PPI) was 25%, the “% Inhibition GIFT” value (Giant foxtail (GIFT); Herbicide No. 13 0.0022 Kg/Ha PPI) was 35% and the “% Inhibition GIFT” value (Giant foxtail (GIFT); Herbicide No. 14 0.07 Kg/Ha PPI) was 0%. The “% Inhibition GIFT” value (Giant foxtail (GIFT); Herbicide No. 16 0.07 Kg/Ha PPI, 13 days) was 30%, the “% Inhibition GIFT” value (Giant foxtail (GIFT); Herbicide No. 17 0.14 Kg/Ha PPI, 13 days) was 75% and the “% Inhibition GIFT” value (Giant foxtail (GIFT); Herbicide No. 18 0.04 Kg/Ha PPI, 13 days) was 55%. The “% Inhibition GIFT” value (Giant foxtail (GIFT); Herbicide No. 20 1.12 Kg/Ha PPI, 13 days) was 20%, the “% Inhibition GIFT” value (Giant foxtail (GIFT); Herbicide No. 22 0.28 Kg/Ha PPI, 13 days) was 25% and the “% Inhibition GIFT” value (Giant foxtail (GIFT); Herbicide No. 24 0.14 Kg/Ha PPI, 13 days) was 10%. The “% Inhibition GIFT” value (Giant foxtail (GIFT); Herbicide No. 25 0.14 Kg/Ha PPI, 13 days) was 30%, the “% Inhibition GIFT” value (Giant foxtail (GIFT); Herbicide No. 26 2.24 Kg/Ha PPI, 13 days) was 0% and the “% Inhibition GIFT” value (Giant foxtail (GIFT); Herbicide No. 28 0.04 Kg/Ha PPI, 13 days) was 50%. The “% Inhibition COTT” value (cotton (COTT); Table 64, Herb. No. 1 0.018 Kg/Ha + Biocide No. 1 8.96 Kg/Ha + Antidote 4.48 Kg/Ha) was 20%, the “% Inhibition COTT” value (cotton (COTT); Table 64, Herb. No. 1 0.07 Kg/Ha + Biocide No. 1 8.96 Kg/Ha + Antidote 4.48 Kg/Ha) was 35% and the “% Inhibition COTT” value (cotton (COTT); Table 64, Herb. No. 1 0.28 Kg/Ha + Biocide No. 1 8.96 Kg/Ha + Antidote 4.48 Kg/Ha) was 35%. For the same molecule, the “% Inhibition COTT” value (cotton (COTT); Table 65, Herb. No. 1 0.018 Kg/Ha + Biocide No. 1 8.96 Kg/Ha + Antidote 4.48 Kg/Ha) was 10%, the “% Inhibition COTT” value (cotton (COTT); Table 65, Herb. No. 1 0.07 Kg/Ha + Biocide No. 1 8.96 Kg/Ha + Antidote 4.48 Kg/Ha) was 20% and the “% Inhibition COTT” value (cotton (COTT); Table 65, Herb. No. 1 0.28 Kg/Ha + Biocide No. 1 8.96 Kg/Ha + Antidote 4.48 Kg/Ha) was 45%. For the same molecule, the “% Inhibition 5 DAP SHCA” value (Shattercane (SHCA); Antidote 4.48 + Biocide No. 1 8.96 Kg/Ha PPI, Herb. No. 8 0.07, 5 DAP, before herbicide application) was 0%, the “% Inhibition 13 DAP SHCA” value (Shattercane (SHCA); Antidote 4.48 + Biocide No. 1 8.96 Kg/Ha PPI, Herb. No. 8 0.07 POE, 13 DAP) was 80% and the “% Inhibition SHCA” value (Shattercane (SHCA); Antidote 4.48 + Biocide No. 1 8.96 Kg/Ha PPI, Herbicide No. 7 0.28 POE, 13 days after planting) was 75%. For the same molecule, the “% Inhibition SHCA” value (Shattercane (SHCA); Table 14: Herbicide No. 7 (ACCENT) 0.84 Kg/Ha POE + Biocide No. 2 8.96 Kg/Ha PPI + antidote 4.48 Kg/Ha PPI, 13 days after planting, 8 days after herbicide) was 70%, the “% Inhibition SHCA” value (Shattercane (SHCA); […], 13 days after planting, 8 days after herbicide) was 90% and the “% Inhibition SHCA” value (Shattercane (SHCA); […], observed 9 days later (Table 29)) was 70%. The “% Inhibition SHCA” value (Shattercane (SHCA); […], observed 9 days later (Table 30)) was 30%, the “% Inhibition SHCA” value (Shattercane (SHCA); […], observed 10 days after herbicide application) was 55% and the “% Inhibition 5 DAP SHCA” value (Shattercane (SHCA); in vivo) was 20%. For the same molecule, the “% Inhibition 13 DAP SHCA” value (Shattercane (SHCA); in vivo) was 75%, the “% Inhibition VELE” value (Velvetleaf (VELE); […], 13 days after PPI (Table 31)) was 85% and the “% Inhibition VELE” value (Velvetleaf (VELE); antidote 4.48 Kg/Ha + Herb. […], 13 days after planting) was 90%.
